# Laboratory results from patent publication US4791215A, “Derivatives of glutamic acid and aspartic acid” (priority 1984, dated 1988).
# What was measured:
# morphine analgesia = test: Increase in analgesia of morphine, Tail Flick Test (Experiment 1); type: in vivo, rats; conditions: for percentage variation of latency of pain sensation / M (10-90) ± SE, mean percentage variation of latency: compound 10 mg/kg i.p. + morphine 2 mg/kg; for M (10-90) ± SE, mean percentage variation of latency: mean 10-90 min; for Power ratio with respect to morphine alone: rat, in vivo
# Summary of the method: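 Non-fasted male rats (150-200 g); a tail point is exposed to a 75 °C heat source and latency to tail movement recorded, 8 s cut-off. Readings taken before and 10, 20, 30, 45, 60 and 90 min after analgesic treatment; percentage variation calculated per animal.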
# [1] = test system: CCK-8 induced contraction of guinea pig gall bladder; test: Anti-CCK activity on gall bladder strips in vitro; conditions: CCK-8 10 ng/ml
# Experimental: ANTI-CCK ACTIVITY ON GUINEA PIG GALL BALDDERS IN VITRO
# A longitudinal strip of guinea pig gall bladder was placed in a bath of isolated members in the presence of Krebs at a temperature of 32° C. with continuous oxygenation with an oxygen-CO2 mixture (95-5V/V).
# The isometric contractions were detected by means of a force transducer and recorded.
# The gall bladder was made to contract with the use of a 10 ng/ml concentration of CCK-8; the antagonistic activity of the compounds of the invention on the contracting effect of the CCK was determined with the use of different concentrations and the ED 50 value, that is the concentration in μg/ml of a compound which could antagonise 50% of the contracting effect of the CCK, was determined.
Structure (SMILES),percentage variation of latency of pain sensation (morphine analgesia; 10'),percentage variation of latency of pain sensation (morphine analgesia; 20'),percentage variation of latency of pain sensation (morphine analgesia; 30'),percentage variation of latency of pain sensation (morphine analgesia; 45'),percentage variation of latency of pain sensation (morphine analgesia; 60'),percentage variation of latency of pain sensation (morphine analgesia; 90'),"M (10-90) ± SE, mean percentage variation of latency (morphine analgesia)",Power ratio with respect to morphine alone (morphine analgesia),ED50 (concentration antagonising 50% of contracting effect of CCK-8) [1]
CCCCCN(CCCCC)C(=O)C(CCC(=O)O)NC(=O)c1ccc(C)c(C)c1 (stereo not drawn) [Compound C-55],89.3 ± 16%,86.2 ± 12%,94.4%,100 ± 0%,100 ± 0%,81.7 ± 13%,88.6 ± 12%,2.97,0.5 µg/mL
CCCN(CCC)C(=O)C(CCC(=O)O)NC(=O)c1cccc(Cl)c1 (stereo not drawn) [Compound C-2],27.8 ± 13.0%,43.8 ± 25.0%,67.5 ± 20.0%,64.2%,74.4 ± 16.0%,57.3 ± 19.0%,55.8 ± 17.0%,1.87,> 200 µg/mL
CCCN(CCC)C(=O)C(CCC(=O)O)NC(=O)c1ccc(I)cc1 (stereo not drawn) [Compound C-18],48.9 ± 31.0%,65.9 ± 24.0%,80.1 ± 9.0%,59.1 ± 20.0%,33.5 ± 20.0%,81.4 ± 12.0%,58.1%,1.95,60.3 µg/mL
CCCCN(CCCC)C(=O)C(CCC(=O)O)NC(=O)c1cc(Cl)cc(Cl)c1 (stereo not drawn) [Compound C-9],67.6 ± 11.0%,65.8%,71.9 ± 17.5%,59.1 ± 20.0%,52.1 ± 22.0%,40.4 ± 18.0%,59.5 ± 11.6%,2.00,7.40 µg/mL
CCCCNC(=O)CC(NC(=O)c1ccc(Cl)c(Cl)c1)C(=O)O [Compound D-3],63.8 ± 17.0%,79.9 ± 13.0%,100.0 ± 0.0%,58.6 ± 18.0%,33.8 ± 18.0%,32.9 ± 10.0%,61.5%,2.06,> 200 µg/mL
CCCCNC(=O)C(CCC(=O)O)NC(=O)c1ccc(C)c(C)c1 (stereo not drawn) [Compound C-42],49.0 ± 31%,65.9 ± 24%,80.1 ± 9%,59.1 ± 20%,33.5 ± 20%,61.4 ± 12%,58.2 ± 16%,1.95,50.1 µg/mL
N#Cc1cccc(C(=O)NC(CC(=O)O)C(=O)NC2CCCCC2)c1 (stereo not drawn) [Compound C-23],33.1 ± 19.0%,49.9 ± 15.0%,58.2 ± 17.0%,68.3 ± 20.0%,72.0%,58.7 ± 22.0%,56.7 ± 14.0%,1.90,> 200 µg/mL
CCCN(CCC)C(=O)CCC(NC(=O)c1ccc(C)c(C)c1)C(=O)O [Compound D-15],43.5 ± 16%,48.7 ± 18%,72.6%,60.1 ± 23%,59.2 ± 18%,43.5 ± 24%,54.6 ± 11%,1.83,245.0 µg/mL
CCCCNC(=O)C(CCC(=O)O)NC(=O)c1cccc(C#N)c1 (stereo not drawn) [Compound C-21],48.6 ± 19.0%,37.4 ± 12.0%,54.8 ± 19.0%,44.6 ± 15.0%,64.0 ± 18.0%,54.9 ± 10.0%,50.7%,1.70,> 200 µg/mL
CCCN(CCC)C(=O)C(CCC(=O)O)NC(=O)c1ccc(C)cc1C (stereo not drawn) [Compound C-32],21.8 ± 5%,58.6 ± 17%,83.5 ± 10%,89.8 ± 8%,78.4 ± 13%,52.2 ± 22%,64.0 ± 25%,2.15,> 300 µg/mL
O=C(NC(CCC(=O)N1CCOCC1)C(=O)O)c1ccc(Br)cc1 [Compound D-6],31.2 ± 22.0%,45.8 ± 23.0%,50.7%,44.5 ± 24.0%,45.3 ± 24.0%,28.2 ± 19.0%,41.0 ± 9.0%,1.37,> 200 µg/mL
CCCN(CCC)C(=O)C(CCC(=O)O)NC(=O)c1cc(F)cc(F)c1 (stereo not drawn) [Compound C-13],24.6 ± 8.9%,70.0 ± 18.5%,75.5 ± 15.0%,56.6%,62.3 ± 17.3%,59.2 ± 25.1%,58.0 ± 18.0%,1.95,> 200 µg/mL
CCCN(CCC)C(=O)C(CCC(=O)O)NC(=O)c1ccccc1Cl (stereo not drawn) [Compound C-1],65.3 ± 18.0%,67.2%,66.3 ± 14.0%,82.7 ± 11.0%,68.8 ± 17.0%,59.3 ± 25.0%,68.2%,2.29,> 200 µg/mL
